Experimental findings from patent US12509453B2, “BRM/BRG1 inhibitors and uses thereof” (Foghorn Therapeutics Inc., priority 2019, dated 2025) are described below.

Bounds are passed on as bounds.

Assay [1] concerns the target T1, BRG-1 (Homo sapiens, UniProt P51532).
T1 construct: made in house; host or cells: High Five insect cells
In words: ATPase catalytic activity assay (ADP-Glo), BRG-1. It is filed as biochemical. The conditions noted are these: 30 nM BRG-1, 400 μM ATP, 20 nM salmon sperm DNA, read-out: BRG1 IP50 (μM)*. On the technique in general: ADP-Glo first removes unused ATP, then detects ADP through luciferase.

Assay [2] deals with T2, BRM (Homo sapiens, UniProt P51531).
T2 construct: made in house; host or cells: High Five insect cells
In words: ATPase catalytic activity assay (ADP-Glo), BRM. It is filed as biochemical. The conditions noted are these: 30 nM BRM, 400 μM ATP, 20 nM salmon sperm DNA, read-out: BRM IP50 (μM)*.

T2 sequence (P51531 whole entry): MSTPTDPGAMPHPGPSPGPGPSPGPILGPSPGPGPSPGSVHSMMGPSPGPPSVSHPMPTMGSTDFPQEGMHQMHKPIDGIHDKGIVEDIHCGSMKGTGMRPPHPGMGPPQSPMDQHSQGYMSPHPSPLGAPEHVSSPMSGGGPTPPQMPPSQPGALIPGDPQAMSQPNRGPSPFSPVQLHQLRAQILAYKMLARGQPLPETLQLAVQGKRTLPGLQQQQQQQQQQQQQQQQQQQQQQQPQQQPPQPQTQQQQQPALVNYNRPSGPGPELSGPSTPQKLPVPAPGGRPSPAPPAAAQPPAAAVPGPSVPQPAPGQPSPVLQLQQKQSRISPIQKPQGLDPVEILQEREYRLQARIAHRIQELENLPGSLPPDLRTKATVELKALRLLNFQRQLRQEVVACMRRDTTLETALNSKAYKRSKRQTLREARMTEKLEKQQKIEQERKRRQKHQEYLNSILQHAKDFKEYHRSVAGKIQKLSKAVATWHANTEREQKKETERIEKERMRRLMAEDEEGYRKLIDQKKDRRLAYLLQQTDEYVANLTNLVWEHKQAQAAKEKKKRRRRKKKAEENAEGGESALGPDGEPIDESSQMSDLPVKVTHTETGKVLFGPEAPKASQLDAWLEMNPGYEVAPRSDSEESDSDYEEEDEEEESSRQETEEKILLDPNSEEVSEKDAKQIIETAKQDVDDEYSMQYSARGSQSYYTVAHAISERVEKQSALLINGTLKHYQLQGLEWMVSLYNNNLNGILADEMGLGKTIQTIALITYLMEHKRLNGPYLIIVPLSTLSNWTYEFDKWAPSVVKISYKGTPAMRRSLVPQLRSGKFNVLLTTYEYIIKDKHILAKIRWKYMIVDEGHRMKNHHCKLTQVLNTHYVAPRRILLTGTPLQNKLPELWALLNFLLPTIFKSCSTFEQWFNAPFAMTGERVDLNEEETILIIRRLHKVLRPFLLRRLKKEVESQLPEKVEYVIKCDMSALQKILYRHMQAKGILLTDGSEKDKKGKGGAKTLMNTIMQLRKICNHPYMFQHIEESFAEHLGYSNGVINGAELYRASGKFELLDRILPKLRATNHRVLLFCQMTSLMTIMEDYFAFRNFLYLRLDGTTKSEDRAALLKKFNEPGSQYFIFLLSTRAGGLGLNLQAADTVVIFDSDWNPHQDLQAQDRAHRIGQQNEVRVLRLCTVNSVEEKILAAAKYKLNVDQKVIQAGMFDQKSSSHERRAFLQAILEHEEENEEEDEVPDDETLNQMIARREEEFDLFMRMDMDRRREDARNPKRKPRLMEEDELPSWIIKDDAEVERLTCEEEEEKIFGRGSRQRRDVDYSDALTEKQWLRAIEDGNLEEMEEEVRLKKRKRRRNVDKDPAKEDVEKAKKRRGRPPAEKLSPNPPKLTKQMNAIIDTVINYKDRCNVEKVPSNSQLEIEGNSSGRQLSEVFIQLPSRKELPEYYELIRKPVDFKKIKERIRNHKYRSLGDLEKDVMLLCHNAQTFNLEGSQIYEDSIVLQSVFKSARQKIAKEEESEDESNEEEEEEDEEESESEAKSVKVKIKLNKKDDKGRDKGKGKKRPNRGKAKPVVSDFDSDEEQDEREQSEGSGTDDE
T1 sequence (P51532 whole entry): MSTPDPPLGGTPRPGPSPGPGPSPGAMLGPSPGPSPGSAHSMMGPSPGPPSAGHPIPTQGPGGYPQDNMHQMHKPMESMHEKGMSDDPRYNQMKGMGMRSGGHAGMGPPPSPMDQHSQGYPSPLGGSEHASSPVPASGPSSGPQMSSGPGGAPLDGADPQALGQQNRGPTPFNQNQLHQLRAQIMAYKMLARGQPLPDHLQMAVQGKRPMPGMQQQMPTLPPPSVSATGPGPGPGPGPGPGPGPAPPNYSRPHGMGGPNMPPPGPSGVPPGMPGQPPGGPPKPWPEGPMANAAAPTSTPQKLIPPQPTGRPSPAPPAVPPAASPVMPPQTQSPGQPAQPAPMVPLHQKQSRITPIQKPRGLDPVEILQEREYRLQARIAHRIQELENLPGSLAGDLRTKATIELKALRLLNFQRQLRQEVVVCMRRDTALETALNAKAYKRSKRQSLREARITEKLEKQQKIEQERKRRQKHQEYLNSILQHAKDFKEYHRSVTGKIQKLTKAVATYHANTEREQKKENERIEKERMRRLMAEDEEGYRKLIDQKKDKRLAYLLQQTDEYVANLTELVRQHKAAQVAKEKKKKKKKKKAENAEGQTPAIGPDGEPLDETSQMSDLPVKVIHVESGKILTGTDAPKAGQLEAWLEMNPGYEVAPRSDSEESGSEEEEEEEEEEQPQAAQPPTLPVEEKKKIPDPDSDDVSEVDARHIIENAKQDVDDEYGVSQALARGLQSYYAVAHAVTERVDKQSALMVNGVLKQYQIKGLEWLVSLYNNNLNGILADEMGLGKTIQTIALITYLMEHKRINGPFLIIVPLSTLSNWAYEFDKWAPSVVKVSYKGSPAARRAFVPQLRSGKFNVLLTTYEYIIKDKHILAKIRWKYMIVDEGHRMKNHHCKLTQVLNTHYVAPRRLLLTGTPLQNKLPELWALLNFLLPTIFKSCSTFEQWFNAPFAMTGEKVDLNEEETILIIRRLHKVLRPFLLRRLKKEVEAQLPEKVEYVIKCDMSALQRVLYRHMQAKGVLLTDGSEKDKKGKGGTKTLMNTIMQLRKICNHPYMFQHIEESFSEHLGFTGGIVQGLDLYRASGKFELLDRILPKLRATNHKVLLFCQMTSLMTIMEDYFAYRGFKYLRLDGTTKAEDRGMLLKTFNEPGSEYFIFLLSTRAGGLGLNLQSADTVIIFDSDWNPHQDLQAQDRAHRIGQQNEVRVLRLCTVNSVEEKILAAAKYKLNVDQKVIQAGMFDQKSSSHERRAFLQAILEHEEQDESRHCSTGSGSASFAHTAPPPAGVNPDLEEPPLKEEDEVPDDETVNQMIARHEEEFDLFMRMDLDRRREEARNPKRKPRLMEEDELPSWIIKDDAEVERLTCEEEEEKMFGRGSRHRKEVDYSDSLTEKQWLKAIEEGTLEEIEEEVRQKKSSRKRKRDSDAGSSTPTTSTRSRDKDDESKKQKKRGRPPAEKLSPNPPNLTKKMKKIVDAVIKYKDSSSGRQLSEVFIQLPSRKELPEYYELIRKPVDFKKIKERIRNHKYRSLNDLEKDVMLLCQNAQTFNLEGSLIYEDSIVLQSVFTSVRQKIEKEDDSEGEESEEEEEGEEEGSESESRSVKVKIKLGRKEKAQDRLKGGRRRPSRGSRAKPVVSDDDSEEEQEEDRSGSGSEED

For the molecule `C[C@@H]1CN(c2cccc(-c3csc(NC(=O)CNC(=O)c4cc(Cl)n(S(C)(=O)=O)c4)n3)c2)C[C@H](C)O1` [Compound 44, 5-chloro-N-(2-((4-(3-((2R,6S)-2,6-dimethylmorpholino)phenyl)thiazol-2-yl)amino)-2-oxoethyl)-1-(methylsulfonyl)-1H-pyrrole-carboxamide], the IC50 in assay [1] and in assay [2] was less than 0.1 µM throughout.
Take `Cc1cc(C(=O)NCC(=O)Nc2nc(-c3cccc(-c4ccnc(N(C)CC(=O)O)c4)c3)cs2)cn1S(C)(=O)=O` [Compound 45, N-methyl-N-(4-(3-(2-(2-(5-methyl-1-(methylsulfonyl)-1H-pyrrole-3-carboxamido)acetamido)thiazol-4-yl)phenyl)pyridin-2-yl)glycine]: the IC50 in assay [1] and in assay [2] was less than 0.1 µM throughout.
Take `CNC(=O)CN(C)c1cc(-c2cccc(-c3csc(NC(=O)CNC(=O)c4cc(C)n(S(C)(=O)=O)c4)n3)c2)ccn1` [Compound 46, 5-methyl-N-(2-((4-(3-(2-(methyl(2-(methylamino)-2-oxoethyl)amino)pyridin-4-yl)phenyl)thiazol-2-yl)amino)-2-oxoethyl)-1-(methylsulfonyl)-1H-pyrrole-3-carboxamide]: the IC50 in assay [1] and in assay [2] was less than 0.1 µM in each case.
